Measured values reported in ChEMBL document CHEMBL1152992, “RmtC 16S rRNA methyltransferase in Australia” (2008).
In brackets after ≈: the same amount, converted by molar mass.

Test system: Proteus mirabilis
Assay: Antimicrobial activity against Proteus mirabilis JIE273 expressing 16S rRNA methyltransferase RmtC
Format: functional

Row | SMILES | MIC
1 | CC1(C)S[C@@H]2[C@H](NC(=O)[C@H](N)c3ccccc3)C(=O)N2[C@H]1C(=O)O [AMPICILLIN] | > 16 µg/mL
2 | C[C@H]1[C@H](NC(=O)/C(=N\OC(C)(C)C(=O)O)c2csc(N)n2)C(=O)N1S(=O)(=O)O [AZTREONAM] | > 16 µg/mL
3 | CO/N=C(\C(=O)N[C@@H]1C(=O)N2C(C(=O)O)=C(COC(C)=O)CS[C@H]12)c1csc(N)n1 [CEFOTAXIME] | > 32 µg/mL
4 | CO[C@@]1(NC(=O)Cc2cccs2)C(=O)N2C(C(=O)O)=C(COC(N)=O)CS[C@@H]21 [CEFOXITIN] | ≤ 4 µg/mL
5 | CC(C)(O/N=C(\C(=O)N[C@@H]1C(=O)N2C(C(=O)[O-])=C(C[n+]3ccccc3)CS[C@H]12)c1csc(N)n1)C(=O)O [CEFTAZIDIME] | > 16 µg/mL
6 | CO/N=C(\C(=O)N[C@@H]1C(=O)N2C(C(=O)O)=C(CSc3nc(=O)c(O)nn3C)CS[C@H]12)c1csc(N)n1 [CEFTRIAXONE] | > 32 µg/mL
7 | CO/N=C(\C(=O)N[C@@H]1C(=O)N2C(C(=O)O)=C(COC(N)=O)CS[C@H]12)c1ccco1 [CEFUROXIME] | > 16 µg/mL
8 | CC(=O)OCC1=C(C(=O)O)N2C(=O)[C@@H](NC(=O)Cc3cccs3)[C@H]2SC1 [CEPHALOTHIN] | > 16 µg/mL
9 | O=C(O)c1cn(C2CC2)c2cc(N3CCNCC3)c(F)cc2c1=O [CIPROFLOXACIN] | > 2 µg/mL
10 | C[C@@H](O)[C@H]1C(=O)N2C(C(=O)O)=C(SCCNC=N)C[C@H]12 [IMIPENEM ANHYDROUS] | ≤ 2 µg/mL
11 | C[C@H]1COc2c(N3CCN(C)CC3)c(F)cc3c(=O)c(C(=O)O)cn1c23.C[C@H]1COc2c(N3CCN(C)CC3)c(F)cc3c(=O)c(C(=O)O)cn1c23.O [LEVOFLOXACIN] | > 4 µg/mL
12 | CCn1cc(C(=O)O)c(=O)c2ccc(C)nc21 [NALIDIXIC ACID] | > 32 µg/mL
13 | CC1(C)S[C@@H]2[C@H](NC(=O)[C@H](C(=O)O)c3ccsc3)C(=O)N2[C@H]1C(=O)O [TICARCILLIN] | 32 µg/mL (≈ 83.2 µM)
